Tests used:
[1] = target: T1, SRC kinase (Homo sapiens, UniProt P12931); assay: Assay for inhibition of SRC kinase activity; format: biochemical; conditions: fluorescence polarization, read-out: percentage inhibition at 20 μM
T1 construct: purchased Upstate Biotechnology 14-117
Procedure, shortened: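 Enzyme (12 U/ml final) preincubated 5 min with inhibitor, then PolyGluTyr 4/1 (150 ng/ml) and ATP (5 μM) added in HEPES/NaOH pH 7.6 with MgCl2, MnCl2 and Na2VO4. After 20 min at ambient temperature, phosphopeptide detected by fluorescence polarization with labelled anti-phosphopeptide antibody; percent inhibition reported at 20 μM.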

[2] = target: Cyclin Dependent kinase 1 (CDK1) (Homo sapiens, UniProt P06493); assay: Assay for inhibition of CDK1 activity; format: biochemical; conditions: [33P]ATP, read-out: percentage inhibition at 20 μM
Sequence of Cyclin Dependent kinase 1 (CDK1) (P06493 whole entry, species assumed): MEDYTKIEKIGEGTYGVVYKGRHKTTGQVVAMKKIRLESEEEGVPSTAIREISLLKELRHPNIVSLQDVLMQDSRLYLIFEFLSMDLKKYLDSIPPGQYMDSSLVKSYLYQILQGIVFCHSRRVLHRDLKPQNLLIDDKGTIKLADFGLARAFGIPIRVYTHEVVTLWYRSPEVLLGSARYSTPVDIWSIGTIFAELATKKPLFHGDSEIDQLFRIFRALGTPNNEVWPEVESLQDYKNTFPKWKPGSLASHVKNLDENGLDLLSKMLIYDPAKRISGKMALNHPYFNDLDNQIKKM
Sequence of Cyclin Dependent kinase 1 (CDK1) (P14635 whole entry partner, species assumed): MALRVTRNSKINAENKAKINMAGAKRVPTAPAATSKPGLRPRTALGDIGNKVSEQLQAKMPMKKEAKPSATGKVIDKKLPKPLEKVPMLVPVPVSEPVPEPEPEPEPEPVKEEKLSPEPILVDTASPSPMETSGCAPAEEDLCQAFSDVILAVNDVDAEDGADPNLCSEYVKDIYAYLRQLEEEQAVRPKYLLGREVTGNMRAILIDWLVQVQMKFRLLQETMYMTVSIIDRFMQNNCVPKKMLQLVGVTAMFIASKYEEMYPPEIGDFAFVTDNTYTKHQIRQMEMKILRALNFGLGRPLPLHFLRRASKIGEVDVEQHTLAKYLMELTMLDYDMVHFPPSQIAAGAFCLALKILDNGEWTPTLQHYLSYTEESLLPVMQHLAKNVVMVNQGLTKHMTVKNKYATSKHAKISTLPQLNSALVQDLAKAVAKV
Description: The inhibition of the kinase activity of Cyclin Dependent kinase 1 (CDK1) is determined by measuring the phosphorylation of its substrate peptide.
The test is carried out in a final volume of 50 μl.
(§1) The incubation buffer is as follows:
• 50 mM Tris/HCl pH 7.5 • 10 mM MgCl2 • […] Na2VO4 • 2 mM DTT • 40 mM Beta-glycerophosphate • 0.1 mg/ml BSA 5 μl of the 10-times concentrated inhibitor are added to 25 μl of incubation buffer containing 0.04 U/μl final concentration of the enzyme; 10 μl of incubation buffer containing 12.5 μM final concentration of peptide substrate are then added and, finally, 10 μl of incubation buffer containing 50 μM ATP and radiolabeled ATP, [^33P]ATP (0.5 μCi), are added. The reaction is stopped after incubation for 40 minutes at ambient temperature. • Results obtained expressed as percentage inhibition at 20 μM • Example 8 93% • Example 30 99% 5) Assay for Inhibition of Abl Activity

[3] = tested on: Casein Kinase II; assay: Assay for inhibition of casein kinase II activity; format: biochemical; conditions: [33P]ATP
Description: The inhibition of the kinase activity is determined by measuring the phosphorylation of its substrate peptide.
The assay is carried out in a final volume of 50 μl.
as §1
• 30 mM MES pH 6.9 • 15 mM MgCl2 • 195 mM KCl • 7.25 mM DTT 5 μl of the 10-times concentrated inhibitor are added to 25 μl of incubation buffer containing 1 U/μl final concentration of the enzyme (Tebu, SE-124); 10 μl of incubation buffer containing 60 μM final concentration of peptide substrate are then added, and, finally, 10 μl of incubation buffer containing 25 μM ATP and radiolabeled ATP, [^33P]ATP (0.25 μCi), are added. The reaction is stopped after incubation for 30 minutes at ambient temperature. • Results obtained expressed as percentage inhibition at 20 μM • Example 8 93% • Example 30 97% 8) Assay for Inhibition for CAN Kinase II Activity

[4] = target: FAK (Homo sapiens, UniProt Q05397); assay: Assay for inhibition of FAK activity (autophosphorylation); format: biochemical; conditions: fluorescence polarization, ATP 1 μM; read-out: IC50s expressed as micromolar
Sequence of FAK (Q05397 whole entry, species assumed): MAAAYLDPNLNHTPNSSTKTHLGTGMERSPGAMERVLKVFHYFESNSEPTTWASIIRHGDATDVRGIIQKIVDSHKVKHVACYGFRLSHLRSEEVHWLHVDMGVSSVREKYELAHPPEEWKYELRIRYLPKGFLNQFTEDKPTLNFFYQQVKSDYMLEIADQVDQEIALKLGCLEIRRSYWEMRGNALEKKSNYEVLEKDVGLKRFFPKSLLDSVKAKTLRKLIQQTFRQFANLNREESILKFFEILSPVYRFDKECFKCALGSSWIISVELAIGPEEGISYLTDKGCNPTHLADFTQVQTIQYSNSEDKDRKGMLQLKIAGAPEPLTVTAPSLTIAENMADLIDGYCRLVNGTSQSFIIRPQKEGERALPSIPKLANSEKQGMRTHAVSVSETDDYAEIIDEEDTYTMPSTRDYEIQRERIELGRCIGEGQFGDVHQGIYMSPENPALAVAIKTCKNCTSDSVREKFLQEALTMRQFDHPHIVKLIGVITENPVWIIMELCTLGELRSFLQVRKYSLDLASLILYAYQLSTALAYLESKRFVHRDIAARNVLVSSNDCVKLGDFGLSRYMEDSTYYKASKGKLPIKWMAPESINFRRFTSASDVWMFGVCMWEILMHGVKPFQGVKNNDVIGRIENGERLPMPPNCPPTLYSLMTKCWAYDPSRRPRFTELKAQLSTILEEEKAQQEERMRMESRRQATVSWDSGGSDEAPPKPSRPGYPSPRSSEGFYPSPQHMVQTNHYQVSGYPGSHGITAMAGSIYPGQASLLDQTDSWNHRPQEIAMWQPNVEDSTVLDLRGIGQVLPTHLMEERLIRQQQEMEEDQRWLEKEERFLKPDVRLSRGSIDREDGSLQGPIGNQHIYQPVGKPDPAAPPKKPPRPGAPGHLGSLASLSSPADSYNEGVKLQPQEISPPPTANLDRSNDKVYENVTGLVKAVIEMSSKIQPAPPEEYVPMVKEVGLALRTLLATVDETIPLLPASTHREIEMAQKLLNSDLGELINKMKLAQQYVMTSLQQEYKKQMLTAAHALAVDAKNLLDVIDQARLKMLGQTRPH
Description: The inhibition of the kinase activity is determined by fluorescence polarization, the autophosphorylation of FAK is detected by adding an anti-phosphoprotein antibody coupled to a fluorescent label.
The assay is carried out in a final volume of 30 μl; all the reagents are prepared in a buffer: • 50 mM HEPES pH 7.5 • 0.03% triton X100 • 10 mM MgCl2 • 5% Glycerol • 1 mM DTT 10 μl of the 10-times concentrated inhibitor are added to 5 μl of enzyme (100 ng final concentration), and 5 μl of incubation buffer and 10 μl of ATP (1 μM final concentration) are added.

[5] = tested on: Candida albicans; assay: Minimum inhibitory concentration in liquid medium, micro method (NCCLS M27-A); format: cell-based; conditions: at least 80% inhibition of growth, read after 24-48 h at 37° C., RPMI 1640, read-out: MIC Candida albicans
Description: (§2) The assay is carried out in a final volume of 40 μl; all the reagents are prepared in a buffer: • 50 mM HEPES pH 7.5 • 0.03% triton X100 • 10 mM MgCl2 • 5% Glycerol • 1 mM DTT 10 μl of the 10-times concentrated inhibitor are added to 5 μl of enzyme (75 ng final concentration), and 5 μl of peptide (1 μM final concentration), then 2.5 μl of incubation buffer containing 40 μM ATP and 2.5 μl of radiolabeled ATP, [^33P]ATP (500 nCi), are added. After incubation for 15 minutes at ambient temperature, 10 μl of incubation buffer containing 192 nM of substrate. […] Reference method for broth dilution antifungal susceptibility testing of yeasts. Approved Standard M27-A. NCCLS, Villanova, Pa.); the minimum concentration with which a visible decrease is observed in the cloudiness of the cell growth (at least 80% compared to a control without product) is the Minimum Inhibitory Concentration (MIC) of the antifungal agent with respect to the strain tested.
(§3) RPMI 1640 medium (liquid) without L-glutamine is supplemented with L-glutamine (0.3 g/l or 10.5 ml of a solution at 200 mM) and buffered with 34.54 g/l (0.165 M) of morpholinepropanesulfonic acid (MOPS). The medium is sterilized by filtration. 100 μl of RPMI medium are distributed into each well of a 96-well plate. The appropriate volume. of the antifungal solution is distributed in the first column of the microplate and supplemented with 200 μl of medium. Doubling dilutions are made so as to establish a range of 11 concentrations in each line of the microplate. The 12th well of each row will serve as a growth control. The cell suspension is prepared from a culture (liquid or agar) or from a frozen vial, and is diluted in RPMI medium so as to obtain a cell suspension at 5×10^3−2×10^4 cells/ml. 100 μl of the cell suspension are distributed in the microplate. For all species of Candida, the MIC is read after 24-48 h, and for Cryptococcus and Aspergillus after 48-72 h, of incubation at 37° C. in a normal atmosphere. The MIC is read by visual reading, determining the well which contains the lowest dose of antifungal agent which causes at least 80% inhibition of the growth of the fungus.

[6] = tested on: Candida glabrata; assay: as above; format: cell-based; conditions: Nakaseomyces glabratus; at least 80% inhibition of growth, read after 24-48 h at 37° C., RPMI 1640; read-out: MIC Candida glabrata
Description: as §2, §3

T1 sequence (P12931 whole entry): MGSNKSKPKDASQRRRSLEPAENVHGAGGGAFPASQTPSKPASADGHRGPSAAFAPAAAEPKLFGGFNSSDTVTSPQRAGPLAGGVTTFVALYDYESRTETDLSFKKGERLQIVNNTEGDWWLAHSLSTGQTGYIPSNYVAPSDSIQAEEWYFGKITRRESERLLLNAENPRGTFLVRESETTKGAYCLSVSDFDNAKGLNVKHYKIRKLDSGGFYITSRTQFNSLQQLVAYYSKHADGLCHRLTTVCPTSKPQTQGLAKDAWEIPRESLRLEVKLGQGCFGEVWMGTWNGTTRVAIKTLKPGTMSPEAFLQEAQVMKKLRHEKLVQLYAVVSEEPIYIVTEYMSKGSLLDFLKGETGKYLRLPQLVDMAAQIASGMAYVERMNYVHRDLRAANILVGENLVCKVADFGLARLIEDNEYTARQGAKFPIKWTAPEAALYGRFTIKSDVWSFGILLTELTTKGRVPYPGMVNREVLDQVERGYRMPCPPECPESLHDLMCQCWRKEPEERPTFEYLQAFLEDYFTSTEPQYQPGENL

| SMILES | inhibition at 20 µM [1] [%] | inhibition at 20 µM [2] [%] | percentage inhibition at 20 μM [3] [%] | IC50 [4] [µM] | MIC [5] [µg/mL] | MIC [6] [µg/mL] |
| --- | --- | --- | --- | --- | --- | --- |
| Cl.Cl.N[C@H]1CC[C@H](Nc2nc(N3CCc4cc([N+](=O)[O-])ccc43)c3nc[nH]c3n2)CC1 [Example 30, Trans-N-[6-(2,3-dihydro-5-nitro-1H-indol-1-yl)-9H-purin-2-yl]-1,4-cyclohexanediamine dihydrochloride] | 99 | 99 | 97 | 1 | 32 | 64 |
| Cl.N[C@H]1CC[C@H](Nc2nc(-n3cnc4cc(Cl)c(Cl)cc43)c3nc[nH]c3n2)CC1 [Example 8, Trans-N-[6-(5,6-dichloro-1H-benzimidazol-1-yl)-9H-purin-2-yl]-1,4-cyclohexanediamine hydrochloride] | 98 | 93 | 93 | 2 | 16 | 16 |
